Laboratory results as given in patent publication US20070128217A1 (priority 2003, published 2007).

What was measured:
[1] = system: antibodies in sera from SARS patients (sera 1a, 1b, 2, 6, 37, 62, London, SARS-yellow, SARS-green); format: binding, human; design: Binding of serum 6 to linear peptides of protein X1 of SARS-CoV Urbani / Binding of serum 37 to linear peptides of protein X1 of SARS-CoV Urbani / Binding of serum 6 to looped/cyclic peptide (PEPSCAN-ELISA) / Binding of serum 37 to looped/cyclic peptide (PEPSCAN-ELISA) / Binding of serum 37 to looped/cyclic peptides of protein X1 of SARS-CoV Urbani / Binding of serum 6 to linear peptides of protein X2 / Binding of serum 37 to linear peptides of protein X2 / Binding of serum 37 to looped/cyclic peptides of protein X2 of SARS-CoV Urbani / Binding of serum 6 to linear peptides of protein M of SARS-CoV Urbani / Binding of serum 37 to linear peptides of protein M of SARS-CoV Urbani / Binding of serum 6 to looped/cyclic peptides of protein M of SARS-CoV Urbani / Binding of serum 37 to looped/cyclic peptides of protein M of SARS-CoV Urbani / Binding of serum 6 to linear peptides of protein X3 of SARS-CoV Urbani / Binding of serum 37 to linear peptides of protein X3 of SARS-CoV Urbani / Binding of serum 37 to looped/cyclic peptides of protein X3 of SARS-CoV Urbani / Binding of serum 6 to linear peptides of protein X4 of SARS-CoV Urbani / Binding of serum 37 to linear peptides of protein X4 of SARS-CoV Urbani / Binding of serum 37 to looped/cyclic peptides of protein X4 of SARS-CoV Urbani / Binding of serum 6 to linear peptides of protein X5 of SARS-CoV Urbani / Binding of serum 37 to linear peptides of protein X5 of SARS-CoV Urbani / Binding of serum 37 to looped/cyclic peptides of protein X5 of SARS-CoV Urbani / Binding of serum 6 to linear peptides of protein N of SARS-CoV Urbani / Binding of serum 37 to linear peptides of protein N of SARS-CoV Urbani / Binding of serum 6 to linear peptide (PEPSCAN-ELISA) / Binding of serum 1a to looped/cyclic peptides of protein N of SARS-CoV Urbani / Binding of serum 1b to looped/cyclic peptides of protein N of SARS-CoV Urbani / Binding of serum 2 to looped/cyclic peptides of protein N of SARS-CoV Urbani / Binding of serum 6 to looped/cyclic peptides of protein N of SARS-CoV Urbani / Binding of serum 37 to looped/cyclic peptides of protein N of SARS-CoV Urbani / Binding of serum 62 to looped/cyclic peptides of protein N of SARS-CoV Urbani / Binding of serum London to looped/cyclic peptides of protein N of SARS-CoV Urbani / Binding of serum SARS-green to looped/cyclic peptides of protein N of SARS-CoV Urbani: unit not given here
[2] = system: control sera (pooled serum of ten healthy LUMC hospital workers; commercial negative donor pooled serum from the Dutch bloodbank); format: binding, human; design: Binding of Control serum LUMC to linear peptides / Binding of Control serum Blood-bank to linear peptides / Binding of Control serum LUMC to looped peptides / Binding of Control Serum Blood-Bank to Looped peptides / Binding of Control serum LUMC to linear peptides of the protein M of SARS-CoV Urbani / Binding of Control serum Blood-bank to linear peptides of the protein M of SARS-CoV Urbani / Binding of Control serum LUMC to looped peptides of the protein M of SARS-CoV Urbani / Binding of Control Serum Blood-Bank to Looped peptides of the protein M of SARS-CoV Urbani: unit not given here
[3] = system: rabbit serum obtained by immunizing a rabbit with the SARS-CoV strain Frankfurt 1; format: binding; design: Binding of a rabbit serum to linear peptides / Binding of a rabbit serum to looped peptides / Rabbit serum linear peptides / Rabbit serum looped peptides / Binding of a rabbit serum to linear peptides of protein N of SARS-CoV Urbani (Rabbit serum linear peptides) / Binding of a rabbit serum to looped/cyclic peptides of protein N of SARS-CoV Urbani (Rabbit serum looped peptides): unit not given here

Sequence	Binding of serum 1a to linear peptides of protein M of SARS-CoV Urbani [1]	Binding of serum 1a to looped/cyclic peptides of protein M of SARS-CoV Urbani [1]	Binding of serum 1b to linear peptides of protein M of SARS-CoV Urbani [1]	Binding of serum 1b to looped/cyclic peptides of protein M of SARS-CoV Urbani [1]	Binding of serum 2 to linear peptides of protein M of SARS-CoV Urbani [1]	Binding of serum 2 to looped/cyclic peptides of protein M of SARS-CoV Urbani [1]	Binding of serum 6 to linear peptides of protein M of SARS-CoV Urbani [1]	Binding of serum 6 to looped/cyclic peptides of protein M of SARS-CoV Urbani [1]	Binding of serum 37 to linear peptides of protein M of SARS-CoV Urbani [1]	Binding of serum 37 to looped/cyclic peptides of protein M of SARS-CoV Urbani [1]	Binding of serum 62 to linear peptides of protein M of SARS-CoV Urbani [1]	Binding of serum 62 to looped/cyclic peptides of protein M of SARS-CoV Urbani [1]	Binding of serum London to linear peptides of protein M of SARS-CoV Urbani [1]	Binding of serum London to looped/cyclic peptides of protein M of SARS-CoV Urbani [1]	Binding of serum SARS-green to linear peptides of protein M of SARS-CoV Urbani [1]	Binding of serum SARS-green to looped/cyclic peptides of protein M of SARS-CoV Urbani [1]	Binding of serum SARS-yellow to linear peptides of protein M of SARS-CoV Urbani [1]	Binding of serum SARS-yellow to looped/cyclic peptides of protein M of SARS-CoV Urbani [1]	Binding of Control Serum Blood-Bank to Looped peptides of the protein M of SARS-CoV Urbani [2]	Binding of Control serum Blood-bank to linear peptides of the protein M of SARS-CoV Urbani [2]	also measured
SGFAAYNRYRIGNYK	0.8	0.9	0.4	0.6	0.6	0.9	0.8	1.4	0.7	0.7	0.8	0.7	0.4	0.3	0.3	0.2	0.0	0.7	0.7	0.6	Binding of Control serum LUMC to linear peptides of the protein M of SARS-CoV Urbani [2]: 0.4; Binding of Control serum LUMC to looped peptides of the protein M of SARS-CoV Urbani [2]: 0.8; Rabbit serum linear peptides [3]: 1.2; Rabbit serum looped peptides [3]: 1.6
LKQLLEQWNLVIGFL	0.7	0.6	0.5	0.6	0.6	0.4	0.7	0.8	0.7	0.5	0.7	0.7	1.0	0.2	0.2	0.4	0.1	0.7	0.7	0.7	Binding of Control serum LUMC to linear peptides of the protein M of SARS-CoV Urbani [2]: 0.3; Binding of Control serum LUMC to looped peptides of the protein M of SARS-CoV Urbani [2]: 0.7; Rabbit serum linear peptides [3]: 0.2; Rabbit serum looped peptides [3]: 0.1
